In the NIST ThermoML archive (doi:10.1021/je060339m):

Conditions: Liquid

CCCCOC(C)=O [butyl ethanoate]
Conditions	mass density [kg/m3]
298.15 K, 100 kPa	875.7
298.15 K, 1000 kPa	876.3
298.15 K, 2000 kPa	877.2
298.15 K, 3000 kPa	878
298.15 K, 3100 kPa	878.1
298.15 K, 5000 kPa	879.9
298.15 K, 10000 kPa	883.8
298.15 K, 15000 kPa	887.6
298.15 K, 20000 kPa	891.3
298.15 K, 25000 kPa	894.9
298.15 K, 30000 kPa	899.1
298.15 K, 35000 kPa	903.7
303.15 K, 100 kPa	870.4
303.15 K, 1000 kPa	871.1
303.15 K, 2000 kPa	872
303.15 K, 3000 kPa	872.9
303.15 K, 3100 kPa	873
303.15 K, 5000 kPa	874.7
303.15 K, 10000 kPa	878.8
303.15 K, 15000 kPa	882.8
303.15 K, 20000 kPa	886.5
303.15 K, 25000 kPa	890.2
303.15 K, 30000 kPa	894.4
303.15 K, 35000 kPa	899.1
308.15 K, 100 kPa	865.1
308.15 K, 1000 kPa	865.9
308.15 K, 2000 kPa	866.9
308.15 K, 3000 kPa	867.8
308.15 K, 3100 kPa	867.8
308.15 K, 5000 kPa	869.6
308.15 K, 10000 kPa	873.9
308.15 K, 15000 kPa	878
308.15 K, 20000 kPa	881.9
308.15 K, 25000 kPa	885.6
308.15 K, 30000 kPa	890
308.15 K, 35000 kPa	894.8
313.15 K, 100 kPa	859.9
313.15 K, 1000 kPa	860.8
313.15 K, 2000 kPa	861.7
313.15 K, 3000 kPa	862.7
313.15 K, 3100 kPa	862.7
313.15 K, 5000 kPa	864.6
313.15 K, 10000 kPa	869
313.15 K, 15000 kPa	873.2
313.15 K, 20000 kPa	877.2
313.15 K, 25000 kPa	881
313.15 K, 30000 kPa	885.6
313.15 K, 35000 kPa	890.5
318.15 K, 100 kPa	854.9
318.15 K, 1000 kPa	855.7
318.15 K, 2000 kPa	856.7
318.15 K, 3000 kPa	857.8
318.15 K, 3100 kPa	857.9
318.15 K, 5000 kPa	859.6
318.15 K, 10000 kPa	864.2
318.15 K, 15000 kPa	868.5
318.15 K, 20000 kPa	872.6
318.15 K, 25000 kPa	876.5
318.15 K, 30000 kPa	881.3
318.15 K, 35000 kPa	886.3
323.15 K, 100 kPa	849.7
323.15 K, 1000 kPa	851
323.15 K, 2000 kPa	852
323.15 K, 3000 kPa	853
323.15 K, 3100 kPa	853.1
323.15 K, 5000 kPa	854.6
323.15 K, 10000 kPa	859.4
323.15 K, 15000 kPa	863.9
323.15 K, 20000 kPa	868.1
323.15 K, 25000 kPa	872.3
323.15 K, 30000 kPa	877.3
323.15 K, 35000 kPa	882.4
328.15 K, 100 kPa	844.6
328.15 K, 1000 kPa	845.7
328.15 K, 2000 kPa	846.8
328.15 K, 3000 kPa	847.9
328.15 K, 3100 kPa	848
328.15 K, 5000 kPa	849.7
328.15 K, 10000 kPa	854.6
328.15 K, 15000 kPa	859.3
328.15 K, 20000 kPa	863.6
328.15 K, 25000 kPa	867.8
328.15 K, 30000 kPa	872.5
328.15 K, 35000 kPa	877.7
333.15 K, 100 kPa	839.6
333.15 K, 1000 kPa	840.7
333.15 K, 2000 kPa	841.8
333.15 K, 3000 kPa	842.9
333.15 K, 3100 kPa	842.9
333.15 K, 5000 kPa	844.9
333.15 K, 10000 kPa	850
333.15 K, 15000 kPa	854.8
333.15 K, 20000 kPa	859.3
333.15 K, 25000 kPa	863.6
333.15 K, 30000 kPa	868.6
333.15 K, 35000 kPa	873.9
338.15 K, 100 kPa	834.5
338.15 K, 1000 kPa	835.6
338.15 K, 2000 kPa	836.7
338.15 K, 3000 kPa	837.9
338.15 K, 3100 kPa	838
338.15 K, 5000 kPa	840.1
338.15 K, 10000 kPa	845.5
338.15 K, 15000 kPa	850.1
338.15 K, 20000 kPa	855
338.15 K, 25000 kPa	859.5
338.15 K, 30000 kPa	864.6
338.15 K, 35000 kPa	870.1
343.15 K, 100 kPa	829.5
343.15 K, 1000 kPa	830.5
343.15 K, 2000 kPa	831.7
343.15 K, 3000 kPa	832.9
343.15 K, 3100 kPa	833
343.15 K, 5000 kPa	835.2
343.15 K, 10000 kPa	840.7
343.15 K, 15000 kPa	845.7
343.15 K, 20000 kPa	850.5
343.15 K, 25000 kPa	855.1
343.15 K, 30000 kPa	860.7
343.15 K, 35000 kPa	866.3
348.15 K, 100 kPa	824.4
348.15 K, 1000 kPa	825.4
348.15 K, 2000 kPa	826.7
348.15 K, 3000 kPa	827.9
348.15 K, 3100 kPa	828
348.15 K, 5000 kPa	830.5
348.15 K, 10000 kPa	836.1
348.15 K, 15000 kPa	841.3
348.15 K, 20000 kPa	846.2
348.15 K, 25000 kPa	850.9
348.15 K, 30000 kPa	856.6
348.15 K, 35000 kPa	862.4
353.15 K, 100 kPa	819.3
353.15 K, 1000 kPa	820.4
353.15 K, 2000 kPa	821.7
353.15 K, 3000 kPa	822.9
353.15 K, 3100 kPa	823
353.15 K, 5000 kPa	825.5
353.15 K, 10000 kPa	831.3
353.15 K, 15000 kPa	836.7
353.15 K, 20000 kPa	841.8
353.15 K, 25000 kPa	846.7
353.15 K, 30000 kPa	852.5
353.15 K, 35000 kPa	858.4
358.15 K, 100 kPa	811.6
358.15 K, 1000 kPa	813.2
358.15 K, 2000 kPa	813.9
358.15 K, 3100 kPa	815.3
358.15 K, 5000 kPa	817.7
358.15 K, 10000 kPa	823.6
358.15 K, 15000 kPa	829.1
358.15 K, 20000 kPa	835.5
363.15 K, 100 kPa	806.1
363.15 K, 1000 kPa	807.5
363.15 K, 2000 kPa	808.8
363.15 K, 3000 kPa	810.1
363.15 K, 3100 kPa	810.3
363.15 K, 5000 kPa	812.8
363.15 K, 10000 kPa	819.2
363.15 K, 15000 kPa	824.9
363.15 K, 20000 kPa	830.4
368.15 K, 100 kPa	800.3
368.15 K, 1000 kPa	802.1
368.15 K, 2000 kPa	803.6
368.15 K, 3000 kPa	804.8
368.15 K, 3100 kPa	805
368.15 K, 5000 kPa	807.7
368.15 K, 10000 kPa	814.3
368.15 K, 15000 kPa	820.3
368.15 K, 20000 kPa	825.9
373.15 K, 100 kPa	795.8
373.15 K, 1000 kPa	797.2
373.15 K, 2000 kPa	798.7
373.15 K, 3000 kPa	800.2
373.15 K, 3100 kPa	800.4
373.15 K, 5000 kPa	803.1
373.15 K, 10000 kPa	809.9
373.15 K, 15000 kPa	815.9
373.15 K, 20000 kPa	821.3
378.15 K, 100 kPa	790.4
378.15 K, 1000 kPa	791.9
378.15 K, 2000 kPa	793.7
378.15 K, 3000 kPa	795.2
378.15 K, 3100 kPa	795.4
378.15 K, 5000 kPa	798
378.15 K, 10000 kPa	804.7
378.15 K, 15000 kPa	810.8
378.15 K, 20000 kPa	817.1
383.15 K, 100 kPa	785.2
383.15 K, 1000 kPa	786.7
383.15 K, 2000 kPa	788.3
383.15 K, 3000 kPa	789.9
383.15 K, 3100 kPa	790
383.15 K, 5000 kPa	792.9
383.15 K, 10000 kPa	800.1
383.15 K, 15000 kPa	806.7
383.15 K, 20000 kPa	812.8
388.15 K, 100 kPa	779.9
388.15 K, 1000 kPa	781.6
388.15 K, 2000 kPa	783.2
388.15 K, 3000 kPa	785.2
388.15 K, 3100 kPa	785.4
388.15 K, 5000 kPa	788.4
388.15 K, 10000 kPa	795.8
388.15 K, 15000 kPa	802.4
388.15 K, 20000 kPa	808.6
393.15 K, 100 kPa	775.2
393.15 K, 1000 kPa	776.4
393.15 K, 2000 kPa	778.1
393.15 K, 3000 kPa	779.5
393.15 K, 3100 kPa	779.7
393.15 K, 5000 kPa	782.8
393.15 K, 10000 kPa	790.6
393.15 K, 15000 kPa	797.7
393.15 K, 20000 kPa	804.2
